Legend:
Wee1 (h) = Wee1 (h) (Homo sapiens, UniProt P30291); assay: Wee1 kinase (h) detection method, [γ-33P]-ATP filter assay; format: biochemical
Description: Determination of the inhibitory effect of 6-(2-chlorophenyl)-2-((4-(4-methylpiperazin-1-yl)phenyl)amino)-8,9-dihydroimidazo[1,2-a]pyrimido[5,4-e]pyrimidin-5(6H)-one and Analogs on the Enzyme Activity of Wee1 Kinase by Using the Wee1 Kinase (h) Detection Method
Then the stock solution of all compounds under test with 50× concentration in 100% DMSO was added to make the final concentration of 10/1/0.1/0.01 μM, and then mixed the mixture well. The reaction is initiated by the addition of the Mg/ATP mix. After incubation for 40 minutes at room temperature, the reaction is stopped by the addition of phosphoric acid to a concentration of 0.5%. […] Each compound sample is duplicated in duplicate. The negative control was lack of all the components of Wee1 enzyme, and the positive was addition of 30% phosphoric acid to terminate the reaction. The Wee1 inhibitor AZD1775 was detected at 10 μM at the same experiment condition.

LoVo cells = assay: MTT based cell viability assay on LoVo cells; conditions: Homo sapiens, LoVo, 72 h, 3 d, read-out: IC50, growth inhibition of LoVo cells
Description: Determination of the cell growth inhibiting activity of 6-(2-chlorophenyl)-2-((4-(4-methylpiperazin-1-yl)phenyl)amino)-8,9-dihydroimidazo[1,2-a]pyrimido[5,4-e]pyrimidin-5(6H)-one and analogs on LoVo cells using a MTT based cell viability assay
(§1) The thawed LoVo cells were cultured and passaged to the third generation, and the growth state was good and the confluence was about 90%, which began to be used in the experiment. The LoVo cells were digested with trypsin, centrifuged at 800 rpm for 5 min, the supernatant was discarded, resuspended with fresh culture medium, and counted. 6000 Cells are seeded to each well of a 96-well plate. The cells are incubated at 37° C. in a 5% CO2 cell culture incubator overnight. The tested sample (including the tested compound and the reference compound AZD1775) was diluted continuously to 8 concentrations (the last concentration was negative control of DMSO) with a 1:3 and 1:10 dilution in DMSO respectively: 10 μM, 3.3 μM, 1 μM, 0.33 μM, 0.1 μM, 0.033 μM, 0.01 μM, 0 μM (the final concentration of DMSO was 1%). 5 μL of each concentration was added to 120 μL of culture medium (25 times diluted), and the mixture was shaken well. The overnight cells were taken and the culture medium was removed, 195 μL of fresh culture medium was added to each well, and 5 μL of diluted culture medium containing the corresponding concentration of the tested sample was added respectively, and the culture plate was then placed in the 5% CO2 cell culture incubator at 37° C. for 3 d. After removing the original solution and adding 100 μL of fresh serum-free DMEM culture medium containing MTT (0.5 mg/mL) per well, the culture was continued. The original solution was removed after 4 hrs and 100 μl DMSO was added to each well. The 96-well cell culture plates were shaken away from light for 10 min and readed in a multifunctional reader at 552/630/690 nm to give absorption values (OD values). The data were analyzed using a commercial graphic software (Graph Pad Prism 5.0) and the inhibitory activity of the compound on cell proliferation was plotted in terms of cell survival and compound concentration. The IC50 values were fitted by the S-shaped dose-response curve equation as follows: Y=100/(1+10^(Log C-Log IC50)), where C was the concentration of testing compounds.

NCI-H1299 cells = assay: MTT based cell viability assay on NCI-H1299 cells; conditions: Homo sapiens, NCI-H1299 cells, read-out: IC50, growth inhibition of NCI-H1299 cells
Description: Determination of the cell growth inhibiting activity of 6-(2-chlorophenyl)-2-((4-(4-methylpiperazin-1-yl)phenyl)amino)-8,9-dihydroimidazo[1,2-a]pyrimido[5,4-e]pyrimidin-5(6H)-one and analogs on NCI-H1299 cells using a MTT based cell viability assay
as §1, with “NCI-H1299” for “LoVo”, “group,” for “medium,”, “1000” for “6000”, “1‰).” for “1%).”, “C−Log” for “C-Log”

Wee1 (h), sequence (P30291 whole entry): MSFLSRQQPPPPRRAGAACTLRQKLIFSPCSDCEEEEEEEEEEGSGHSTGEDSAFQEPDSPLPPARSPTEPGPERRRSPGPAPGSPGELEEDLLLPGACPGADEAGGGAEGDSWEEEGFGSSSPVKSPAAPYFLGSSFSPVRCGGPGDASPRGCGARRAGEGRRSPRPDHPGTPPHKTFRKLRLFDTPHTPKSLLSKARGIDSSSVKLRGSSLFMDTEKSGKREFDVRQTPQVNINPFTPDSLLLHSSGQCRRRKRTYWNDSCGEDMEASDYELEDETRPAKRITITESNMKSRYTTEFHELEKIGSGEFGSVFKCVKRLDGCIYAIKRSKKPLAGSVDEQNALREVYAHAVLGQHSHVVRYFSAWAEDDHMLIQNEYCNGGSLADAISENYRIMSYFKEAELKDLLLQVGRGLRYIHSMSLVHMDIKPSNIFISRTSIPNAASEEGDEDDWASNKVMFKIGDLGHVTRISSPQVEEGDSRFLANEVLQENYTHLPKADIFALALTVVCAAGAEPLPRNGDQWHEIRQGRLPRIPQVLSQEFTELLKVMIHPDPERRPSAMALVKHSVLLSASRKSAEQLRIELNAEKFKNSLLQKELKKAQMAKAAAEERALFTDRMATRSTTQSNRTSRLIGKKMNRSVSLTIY

| Inh. (%) of Wee1 kinase enzyme activity (Wee1 (h); C 0.01 μm compound) | Inh. (%) of Wee1 kinase enzyme activity (Wee1 (h); C 0.1 μm compound) | Inh. (%) of Wee1 kinase enzyme activity (Wee1 (h); C 1 μm compound) | IC50 (LoVo cells) | IC50 (NCI-H1299 cells) | SMILES |
| --- | --- | --- | --- | --- | --- |
| 31% | 84% | 96% | 1430 nM | 1260 nM | CC(=O)N1CCN(c2ccc(Nc3ncc4c(n3)N3CCN=C3N(c3c(F)cccc3Cl)C4=O)cc2)CC1 [Example 7, 2-((4-(4-Acetylpiperazin-1-yl)phenyl)amino)-6-(2-chloro-6-fluorophenyl)-8,9-dihydroimidazo[1,2-a]pyrimido[5,4-e]pyrimidin-5(6H)-one] |
| 60% | 93% | 99% | 202 nM | 159 nM | CN1CCc2ccc(Nc3ncc4c(n3)N3CCN=C3N(c3c(F)cccc3Cl)C4=O)cc2C1 [Example 8, 6-(2-Chloro-6-fluorophenyl)-2-((2-methyl-1,2,3,4-tetrahydroisoquinolin-7-yl)amino)-8,9-dihydroimidazo[1,2-a]pyrimido[5,4-e]pyrimidin-5(6H)-one] |
| 28% | 79% | 100% | 126 nM | 183 nM | CN1Cc2cc(Nc3ncc4c(n3)N3CCN=C3N(c3c(F)cccc3Cl)C4=O)ccc2C(C)(C)C1 [Example 9, 6-(2-Chloro-6-fluorophenyl)-2-((2,4,4-trimethyl-1,2,3,4-tetrahydroisoquinolin-7-yl)amino)-8,9-dihydroimidazo[1,2-a]pyrimido[5,4-e]pyrimidin-5(6H)-one] |
| 46% | 93% | 98% | 88.7 nM | 172 nM | CN1Cc2cc(Nc3ncc4c(n3)N3CCN=C3N(c3c(F)cccc3Cl)C4=O)ccc2C2(CC2)C1 [Example 10, 6-(2-Chloro-6-fluorophenyl)-2-((2′-methyl-2′,3′-dihydro-1′H-spiro[cyclopropane-1,4′-isoquinolin]-7′-yl)amino)-8,9-dihydroimidazo[1,2-a]pyrimido[5,4-e]pyrimidin-5(6H)-one] |
| 23% | 85% | 97% | 101 nM | 705 nM | CC(=O)N1Cc2cc(Nc3ncc4c(n3)N3CCN=C3N(c3c(F)cccc3Cl)C4=O)ccc2C2(CC2)C1 [Example 11, 6-(2-Chloro-6-fluorophenyl)-2-((2′-acetyl-2′,3′-dihydro-1′H-spiro[cyclopropane-1,4′-isoquinolin]-7′-yl)amino)-8,9-dihydroimidazo[1,2-a]pyrimido[5,4-e]pyrimidin-5(6H)-one] |
| 32% | 83% | 98% | 219 nM | 232 nM | CN1CCc2ccc(Nc3ncc4c(n3)N3CCN=C3N(c3c(Cl)cccc3Cl)C4=O)cc2C1 [Example 12, 6-(2,6-Dichlorophenyl)-2-((2-methyl-1,2,3,4-tetrahydroisoquinolin-7-yl)amino)-8,9-dihydroimidazo[1,2-a]pyrimido[5,4-e]pyrimidin-5(6H)-one] |
| 29% | 87% | 100% | 76.7 nM | 101 nM | CN1Cc2cc(Nc3ncc4c(n3)N3CCN=C3N(c3c(Cl)cccc3Cl)C4=O)ccc2C(C)(C)C1 [Example 13, 6-(2,6-Dichlorophenyl)-2-((2,4,4-trimethyl-1,2,3,4-tetrahydroisoquinolin-7-yl)amino)-8,9-dihydroimidazo[1,2-a]pyrimido[5,4-e]pyrimidin-5(6H)-one] |
| 12% | 86% | 92% | 149 nM | 98.7 nM | CN1Cc2cc(Nc3ncc4c(n3)N3CCN=C3N(c3c(Cl)cccc3Cl)C4=O)ccc2C2(CC2)C1 [Example 14, 6-(2,6-Dichlorophenyl)-2-((2′-methyl-2′,3′-dihydro-1′H-spiro[cyclopropane-1,4′-isoquinolin]-7′-yl)amino)-8,9-dihydroimidazo[1,2-a]pyrimido[5,4-e]pyrimidin-5(6H)-one] |
| – | – | 89% | 1730 nM | 966 nM | Cc1cccc(C)c1N1C(=O)c2cnc(Nc3ccc4c(c3)CN(C)CC4)nc2N2CCN=C21 [Example 15, 6-(2,6-Dimethylphenyl)-2-((2-methyl-1,2,3,4-tetrahydroisoquinolin-7-yl)amino)-8,9-dihydroimidazo[1,2-a]pyrimido[5,4-e]pyrimidin-5(6H)-one] |
| 15% | 59% | 98% | 4760 nM | 617 nM | Cc1cccc(C)c1N1C(=O)c2cnc(Nc3ccc4c(c3)CN(C)CC4(C)C)nc2N2CCN=C21 [Example 16, 6-(2,6-Dimethylphenyl)-2-((2,4,4-trimethyl-1,2,3,4-tetrahydroisoquinolin-7-yl)amino)-8,9-dihydroimidazo[1,2-a]pyrimido[5,4-e]pyrimidin-5(6H)-one] |
| – | – | 87% | 290 nM | 447 nM | Cc1cccc(C)c1N1C(=O)c2cnc(Nc3ccc4c(c3)CN(C)CC43CC3)nc2N2CCN=C21 [Example 17, 6-(2,6-Dimethylphenyl)-2-((2′-methyl-2′,3′-dihydro-1′H-spiro[cyclopropane-1,4′-isoquinolin]-7′-yl)amino)-8,9-dihydroimidazo[1,2-a]pyrimido[5,4-e]pyrimidin-5(6H)-one] |
| – | – | 14% | > 1000 nM | > 10000 nM | CC(C)N1C(=O)c2cnc(Nc3ccc(N4CCN(C)CC4)cc3)nc2N2CCN=C21 [Example 18, 6-Isopropyl-2-((4-(4-methylpiperazin-1-yl)phenyl)amino)-8,9-dihydroimidazo[1,2-a]pyrimido[5,4-e]pyrimidin-5(6H)-one] |
| – | – | 7% | > 100000 nM | > 10000 nM | CN1CCN(c2ccc(Nc3ncc4c(n3)N3CCN=C3N(C(C)(C)C)C4=O)cc2)CC1 [Example 19, 6-(Tert-butyl)-2-((4-(4-methylpiperazin-1-yl)phenyl)amino)-8,9-dihydroimidazo[1,2-a]pyrimido[5,4-e]pyrimidin-5(6H)-one] |

Reference: patent US11345711B2, “8,9-dihydroimidazo[1,2-a]pyrimido[5,4-e]pyrimidin-5(6H)-ones” (IMPACT THERAPEUTICS (SHANGHAI), INC, priority 2016, dated 2022)
